Experiment: mn = molality of the nth substance listed, in mol/kg
Settings: 101 kPa, Liquid; for viscosity: Capillary tube (Ostwald / Ubbelohde) method; for mass density: Vibrating tube method

O [water] + Cc1c(N)cccc1N
m2 = 0
Settings	mass density [kg/m3]	viscosity [mPa·s]
293.15 K	–	1.002
303.15 K	–	0.798
313.15 K	–	0.653
323.15 K	988.04	0.547
333.15 K	983.2	0.467

CCO [ethanol] + Cc1ccc(N)cc1N
m2 = 0
Settings	mass density [kg/m3]	viscosity [mPa·s]
293.15 K	789.56	1.179
303.15 K	780.98	0.972
313.15 K	772.22	0.806
323.15 K	763.29	0.672
333.15 K	754.18	0.564

Cc1ccc(N)cc1N [4-methyl-1,3-benzendiamine] + CCCCO
Settings	mass density, 293.15 K [kg/m3]	mass density, 303.15 K [kg/m3]	mass density, 313.15 K [kg/m3]	mass density, 323.15 K [kg/m3]	mass density, 333.15 K [kg/m3]	viscosity, 293.15 K [mPa·s]	viscosity, 303.15 K [mPa·s]	viscosity, 313.15 K [mPa·s]	viscosity, 323.15 K [mPa·s]	viscosity, 333.15 K [mPa·s]
m1 = 0.0497	811.16	803.49	795.7	787.74	779.59	2.922	2.237	1.731	1.357	1.076
m1 = 0.0997	812.62	804.93	797.13	789.15	781	2.939	2.246	1.736	1.362	1.079
m1 = 0.1501	814.06	806.37	798.55	790.56	782.41	2.954	2.258	1.746	1.367	1.083
m1 = 0.1999	815.48	807.77	799.94	791.94	783.78	2.972	2.269	1.751	1.372	1.087
m1 = 0.2491	816.86	809.14	801.3	793.29	785.12	2.994	2.279	1.759	1.377	1.091

CCCCO [butan-1-ol] + Cc1c(N)cccc1N
m2 = 0
Settings	mass density [kg/m3]	viscosity [mPa·s]
293.15 K	809.69	2.908
303.15 K	802.04	2.225
313.15 K	794.27	1.723
323.15 K	786.32	1.351
333.15 K	778.16	1.071

From the NIST ThermoML archive (doi:10.1021/je400968v)
